# In article PMC12406253, “Exploration of the Neuromodulatory Properties of Fyn and GSK-3β Kinases Exploiting 7‑Azaindole-Based Inhibitors” (Journal of Medicinal Chemistry, 2025):
# Experiments:
# [1] = BBB permeability in hCMEC/D3 transwell model; settings: human
# Method: To this aim, the immortalized human brain endothelial cell line (hCMEC/D3) was used since it mimics the brain endothelium-restricted permeability and expresses most of the transporters and receptors present in vivo, constituting a valuable in vitro model of the human BBB crossing system.
# BBB permeability assay was conducted as described in Albertini et al. The brain microvascular endothelial cells (hCMEC/D3) were seeded at the density of 5 × 10^4 cells per cm^2 in the upper compartment of Transwell filters (polyester, pore size 0.4 μm, 12-well tissue culture transwell; Corning), precoated with rat tail collagen type I (0.1 mg/mL; Roche). They were grown for 7 days up to confluence in Endothelial Cell Growth Medium 2 (Promocell), supplemented with penicillin/streptomycin 100 U/mL, in a humidified, 5% CO2 incubator at 37 °C. Confluent monolayers were washed in prewarmed HBSS buffer, and the selected compounds were added to the apical (AP) side at a concentration of 100 μM. […] Samples (100 μL) were collected from the BL side at different time points (15, 30, 60, and 90 min) and then replaced with the corresponding volume of HBSS buffer. […] The concentration of compounds was determined using a Ultimate 3000 HPLC system (ThermoFisher) with UV–vis detection at the maximum absorption wavelength of each compound except for inulin as determined by a spectrophotometric method using a Tecan Sunrise absorbance microplate reader. […] The permeability coefficient (Papp) was calculated as follows: Papp = (ΔQ/Δt)/(C [donor] × A), where ΔQ/Δt represents the permeation rate (mol/s), C [donor] is the initial compound concentration in the donor compartment at time 0 (mol/cm^3), and A represents the surface area of the filter (1.12 cm^2).
# human recombinant GSK-3β = human recombinant GSK-3β (Homo sapiens, UniProt P49841); test: GSK-3β kinase assay, LANCE Ultra TR-FRET; type: biochemical; settings: for IC50: mean ± SD of at least three independent determinations, ATP near Km
# Sequence of human recombinant GSK-3β (P49841 whole entry): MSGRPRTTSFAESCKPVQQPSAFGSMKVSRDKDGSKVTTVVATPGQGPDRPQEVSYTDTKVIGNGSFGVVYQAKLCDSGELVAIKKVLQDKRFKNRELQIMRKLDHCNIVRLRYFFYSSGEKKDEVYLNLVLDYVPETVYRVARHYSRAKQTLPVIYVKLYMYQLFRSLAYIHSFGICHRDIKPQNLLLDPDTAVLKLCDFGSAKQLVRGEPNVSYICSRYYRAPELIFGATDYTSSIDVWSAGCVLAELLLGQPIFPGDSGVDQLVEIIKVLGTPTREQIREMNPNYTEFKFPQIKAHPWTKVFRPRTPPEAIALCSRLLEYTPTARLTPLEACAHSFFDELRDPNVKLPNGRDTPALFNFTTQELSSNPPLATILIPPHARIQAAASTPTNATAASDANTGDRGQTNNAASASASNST
# Method: GSK-3β and FYNα kinase assays were run in 384-well microplates (OptiPlate-384, White, PerkinElmer) in a total reaction volume of 20 μL. The inhibitory potency against human recombinant GSK-3β and FYNα (Carna Biosciences) was evaluated using the LANCE Ultra (PerkinElmer) time-resolved fluorescence resonance energy transfer (TR-FRET) by measuring the phosphorylation of the ULight-labeled substrate, according to the manufacturer's instructions. […] Briefly, test compounds and staurosporine (reference compound) or DMSO (control) are mixed with the enzyme (GSK-3β: 2 nM and FYNα: 1 nM) in a buffer containing 50 mM HEPES (pH 7.5), 1 mM EGTA, 10 mM MgCl2, 2 mM DTT, and 0.01% Tween-20. […] Following incubation, the reaction is stopped by adding 6 mM EDTA. After 5 min, the antiphospho antibody labeled with europium chelate is added. After 1 more hour, the kinase reaction is monitored by irradiation at 320 nm and the fluorescence measured at 615 and 665 nm, using EnVision 2014 Multilabel Reader (PerkinElmer). The calculated signal ratio at 665/615 nm is proportional to the extent of ULight-substrate phosphorylation. The compounds were tested at 11 different concentrations ranging from 3 nM up to 100 μM in triplicate. […] The results were expressed as a percent inhibition of the control enzyme activity. Dose-response curves were run in at least three independent experiments, performed in three technical replicates. IC50 values (concentrations causing half-maximal enzyme inhibition) were determined by nonlinear regression analysis of the Log[concentration]/response curves generated with mean replicate values using a four parameter Hill equation curve fitting with GraphPad Prism 8 (GraphPad Software Inc., CA-USA).
# FYNα = FYNα (Homo sapiens, UniProt P06241); test: FYNα kinase assay, LANCE Ultra TR-FRET; type: biochemical; settings: for IC50: mean ± SD of at least three independent determinations, ATP near Km, read-out: Fyn IC50
# Sequence of FYNα (P06241 whole entry): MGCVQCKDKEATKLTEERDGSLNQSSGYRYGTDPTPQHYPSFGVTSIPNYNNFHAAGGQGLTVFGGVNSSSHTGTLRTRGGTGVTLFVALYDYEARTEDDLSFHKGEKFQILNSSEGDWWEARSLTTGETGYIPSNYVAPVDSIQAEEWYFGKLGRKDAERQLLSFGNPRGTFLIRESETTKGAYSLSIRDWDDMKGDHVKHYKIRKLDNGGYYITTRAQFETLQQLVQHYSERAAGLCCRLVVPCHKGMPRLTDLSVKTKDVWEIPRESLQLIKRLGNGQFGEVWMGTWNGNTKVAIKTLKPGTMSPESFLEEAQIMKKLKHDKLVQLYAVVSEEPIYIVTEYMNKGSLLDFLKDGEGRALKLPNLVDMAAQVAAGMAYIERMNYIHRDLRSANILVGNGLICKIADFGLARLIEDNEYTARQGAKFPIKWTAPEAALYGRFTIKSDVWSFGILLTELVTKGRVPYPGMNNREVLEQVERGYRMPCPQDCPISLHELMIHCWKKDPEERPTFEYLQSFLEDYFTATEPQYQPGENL
# Method: GSK-3β and FYNα kinase assays were run in 384-well microplates (OptiPlate-384, White, PerkinElmer) in a total reaction volume of 20 μL. The inhibitory potency against human recombinant GSK-3β and FYNα (Carna Biosciences) was evaluated using the LANCE Ultra (PerkinElmer) time-resolved fluorescence resonance energy transfer (TR-FRET) by measuring the phosphorylation of the ULight-labeled substrate, according to the manufacturer’s instructions. The synthetic peptide surrounding Ser641 of human muscle glycogen synthase (ULight-GS (Ser641/pSer657)) and the synthetic 28-amino acid peptide containing eight Tyr residues placed in different amino acid contexts (ULightTM-TK (PT66)) were selected as specific substrates for GSK-3β and FYNα, respectively. Briefly, test compounds and staurosporine (reference compound) or DMSO (control) are mixed with the enzyme (GSK-3β: 2 nM and FYNα: 1 nM) in a buffer containing 50 mM HEPES (pH 7.5), 1 mM EGTA, 10 mM MgCl2, 2 mM DTT, and 0.01% Tween-20. […] Following incubation, the reaction is stopped by adding 6 mM EDTA. After 5 min, the antiphospho antibody labeled with europium chelate is added. After 1 more hour, the kinase reaction is monitored by irradiation at 320 nm and the fluorescence measured at 615 and 665 nm, using EnVision 2014 Multilabel Reader (PerkinElmer). The calculated signal ratio at 665/615 nm is proportional to the extent of ULight-substrate phosphorylation. The compounds were tested at 11 different concentrations ranging from 3 nM up to 100 μM in triplicate. […] The results were expressed as a percent inhibition of the control enzyme activity.
# Dose–response curves were run in at least three independent experiments, performed in three technical replicates. IC50 values (concentrations causing half-maximal enzyme inhibition) were determined by nonlinear regression analysis of the Log[concentration]/response curves generated with mean replicate values using a four parameter Hill equation curve fitting with GraphPad Prism 8 (GraphPad Software Inc., CA-USA).
# [2] = tested on: primary rat cerebellar granule neurons (CGNs); test: Neurotoxicity, cell viability in CGNs (MTT); type: cell-based; settings: 5, 10, and 25 μM, 24 h
# Method: A preliminary cell viability assessment was conducted in primary rat cerebellar granule neurons (CGNs), which are considered a reliable model for studying cellular and molecular mechanisms of survival/apoptosis and neurodegeneration/neuroprotection.
# Primary cerebellar granule cells were dissociated from cerebella and plated on 96-well plates, previously coated with 10 μg/mL poly-L-lysine, at a density of 1.2 × 10^5 cells/0.2 mL medium/well in BME supplemented with 10% heat-inactivated FBS (Life Technologies), 2 mmol/L glutamine, 100 μmol/L gentamicin sulfate, and 25 mM KCl (all from Sigma-Aldrich). Sixteen hours later, 10 μM cytosine arabinofuranoside (Sigma-Aldrich) was added to avoid glial proliferation. After 7 days in vitro, differentiated neurons were shifted to serum-free BME medium and exposed to increasing concentrations (5 μM, 10 μM, 25 μM) of compounds of interest for 24 h. Then, cell viability was evaluated through the MTT assay.
# [3] = tested on: immortalized murine microglia N9; test: Immunomodulation in LPS-treated N9 microglia, Western blot of iNOS and TREM2; settings: 2.5 and 5 μM; 100 ng/mL LPS, 24 h
# Method: To gain a conclusive answer on the potential role of these kinase inhibitors in counteracting neuroinflammatory processes, after the verified induced astrocytic polarization, the ability of selected compounds to modulate inflammatory response was analyzed by favoring the immunomodulatory switch from neurotoxic M1 phenotype of microglia to phagocytic and neuroprotective M2 phenotype, evaluating inducible nitric oxide synthase (iNOS) and TREM2 as M1 and M2 markers (Figure ).
# The microglial phenotype was evaluated through Western blot analysis of the pro-inflammatory iNOS and anti-inflammatory-TREM2 markers.
# [4] = tested on: neurospheres (NPCs from the subventricular zone); test: Neurosphere growth analysis (NPC proliferation); type: cell-based, mice; settings: 0.1, 1, and 5 μM; 7 days
# Method: Based on that, we further investigated the neurogenic and differentiation potential of our kinase inhibitors in cell culture of neurospheres, which are floating pools of NPCs coming from the subventricular zone (SVZ) of six-month-old mice. Particularly, we first analyzed the variation, during 7 days, in number and size of neurosphere population with and without treatment.
# To investigate the effect of compounds of interest in neurospheres’ growth rate, single spheres were plated in suspension in 96-well plates (5 × 10^3 cells/well) in the presence of compounds (0.1 μM, 1 μM, and 5 μM) in complete DMEM F-12 culture medium. One image/well was acquired every day by using the Sartorius Incucyte Live-Cell Analysis System and evaluated through the Brightfield Spheroid Analysis Software Module. Only aggregates with areas larger than 400 μm^2 were considered for statistical analysis.
# [5] = tested on: primary rat cerebellar granule neurons (CGNs); test: Neuroprotection in CGNs, serum/potassium deprivation (MTT); type: cell-based; settings: 5, 10, and 25 μM, 48 h
# From the text: First, we evaluated the neuroprotective properties of the selected compounds in the same cell line, once the expression of Fyn and GSK-3β in this cellular model was verified (Figure S2), after a serum/potassium deprivation experiment, which simulates physiological aging (and mortality), triggering around 20% of cell death. In particular, 7 days differentiated CGNs were exposed to serum-free BME medium with low extracellular concentration of K^+ ions and treated at selected doses (i.e., 5, 10, and 25 μM) of compounds for 48 h. Neuronal viability was then determined with an MTT assay.
# To evaluate the neuroprotective effect of our compounds, we tested increasing concentrations (5 μM, 10 μM, 25 μM) of compounds of interest in differentiated CGNs switched to serum-free BME medium with 5 mM KCl (serum-potassium deprivation) for 48 h to mimic in vitro the naturally occurring death of granule cells. Neuroprotection was evaluated through MTT assay.
# For MTT assay, thiazolyl blue was added to the culture medium at a final concentration of 0.1 mg/mL. Following a 20 min incubation at 37 °C in the dark, the MTT precipitate was dissolved in 0.1 M Tris–HCl pH 7.5 buffer containing 5% Triton X-100 (all from Sigma-Aldrich) and absorbance was read at 570 nm in a microplate spectrophotometric reader (Bio-Rad).
# [6] = tested on: neurospheres (NPCs from the subventricular zone); test: Neurosphere differentiation, immunofluorescence of DCX, GFAP, OLIG2; type: cell-based, mice; settings: 1 μM; 7 days
# From the text: Lastly, we move forward to evaluate the neuromodulatory profile of selected compounds that involves the capability to polarize the spontaneous differentiation of neurospheres, which potentially can maturate in neurons or macroglia, such as astrocytes and oligodendrocytes. Modulating NPC differentiation is especially relevant under neurodegenerative conditions as it could offer an intriguing opportunity to achieve polyhedric therapeutic effects. Importantly, neuronal differentiation may help to counteract the progressive neuronal loss, while promoting oligodendrocyte phenotype could support remyelination and neuronal function and the astrocytic polarization may aid to foster a neuroprotective profile. Particularly, after 7 days of treatment at 1 μM, in the same experimental conditions previously reported, cells were fixed and stained with different antibody markers such as doublecortin (DCX) for the immature neurons, glial fibrillary acidic protein (GFAP) for astrocytes, and oligodendrocyte transcription factor 2 (OLIG2) for oligodendrocyte precursors for immunofluorescence analysis (Figure a). […] By driving the maturation of astrocytes, compounds 41 and 43 could exert neuroprotection through multiple mechanisms, including the secretion of neurotrophic factors, enhancement of antioxidant defenses, regulation of water balance, ion homeostasis, and glutamate buffering and recycling. Furthermore, astrocytes support the integrity of the blood–brain barrier (BBB) and aid in the refinement of neural networks via synaptic pruning, further reinforcing their role in preserving brain function and structure.
# NSCs were initially obtained by SVZ microdissection of 6 months-old C57BL/6N wild-type male mice (Mus musculus) and routinely cultured in suspension in DMEM-F12 (Gibco; ThermoFisher Scientific, Waltham, MA, USA) supplemented with 2 mM glutamine, 10 μg/mL insulin from bovine pancreas (Sigma-Aldrich; St Louis, MO, USA), 20 ng/mL epidermal growth factor (EGF; PeproTech EC, London, UK), 20 ng/mL fibroblast growth factor-2 (FGF2; PeproTech), 1% N2 (ThermoFisher Scientific), 1% B27 (ThermoFisher Scientific), 10 units/mL penicillin, and 10 μg streptomycin.
# To assess the effect of compounds of interest in NSCs differentiation, 30 spheres were plated on 13 mm glass coverslips, previously coated with Matrigel matrix (Corning; New York, USA), in complete DMEM F-12 medium, and treated with 1 μM of compounds of interest. After 7DIV, neurospheres were fixed for 20 min with 4% PFA in PBS 0.1% pH 7.4. Fixed neurospheres were permeabilized in 0.1% Triton/PBS and nonspecific sites were blocked for 1 h with 0.1% Triton/PBS and 5% normal goat serum (Sigma-Aldrich; St Louis, MO, USA). Cells were then incubated overnight at 4 °C with the following primary antibodies: Anti-Doublecortin DCX (Abcam, Cambridge, UK), GFAP (Dakopatts), OLIG2 (Santa Cruz Biotechnology), 1:500 dilution in 0.1% Triton/PBS with 2% normal goat serum. After 3 washes in 0.1% Triton/PBS, specific secondary antibodies were added for 2 h at RT in the dark: Donkey anti-Mouse IgG Alexafluor 555 (Abcam, Cambridge, UK), Goat anti-Rabbit IgG Alexafluor 555 (Abcam, Cambridge, UK), 1:1000 dilution in 0.1% Triton/PBS with 2% normal goat serum. Following 3 washes in 0.1% Triton/PBS, nuclei were stained with DAPI (2 μg/mL, Sigma-Aldrich) for 5 min. Glass coverslips were mounted by using Ultracruz Aqueous Mounting Medium with DAPI (Santa Cruz Biotechnology). Neurospheres confocal images were obtained with a Nikon EZ-C1 microscope (60× objective) and the z-stack function (1024 steps and 1 μm thickness layers; 40 total stacks). 3D image reconstruction was performed by using Fiji ImageJ2 software, z-project plugin, and selecting the sum stacks’ function. Fluorescence intensity index was estimated as the ratio of markers’ positive cells intensity/total cells fluorescence intensity stained with DAPI per ROI.
# [7] = 50 μM, mean ± SD, n.i. = no inhibition
smiles,measurement,setting,value
"Cc1cc(=O)n(-c2ccccc2)n1C [Antypirine, antipyrine, reference compound]","Papp A→B at 90 min, 100 μM",[1],28 ± 0.53 ×10⁻⁶ cm/s
"Br.CN(C)c1ccc(CNc2nc(-c3c[nH]c4ncccc34)cs2)cc1 [Compound 26, N-(4-(Dimethylamino)benzyl)-4-(1H-pyrrolo[2,3-b]pyridin-3-yl)thiazol-2-amine Hydrobromide]",GSK-3β % Inhibition @ 50 μM,human recombinant GSK-3β; [7],completely inactive
same,Fyn % Inhibition @ 50 μM,FYNα; [7],completely inactive
same,Neurotoxicity on CGNs (cell viability compared to control),[2],not neurotoxic
same,TREM2 expression (M2 marker) vs LPS,[3],no significant variations
"Br.c1cnc2[nH]cc(-c3csc(NCc4ccncc4)n3)c2c1 [Compound 27, N-(Pyridin-4-ylmethyl)-4-(1H-pyrrolo[2,3-b]pyridin-3-yl)thiazol-2-amine Hydrobromide]",IC50,FYNα,3480 ± 680 nM
same,"Neurosphere dimension (brightfield object total area), maturation",[4],noticeable maturation at days 6 and 7
same,"Neurosphere number (object count per image), neurogenesis",[4],pronounced neurogenesis
"Br.CN(Cc1ccccc1)c1nc(-c2c[nH]c3ncccc23)cs1 [Compound 33, N-Benzyl-N-methyl-4-(1H-pyrrolo[2,3-b]pyridin-3-yl)thiazol-2-amine Hydrobromide]",IC50,human recombinant GSK-3β,2450 ± 540 nM
same,Fyn % Inhibition @ 50 μM,FYNα; [7],n.i.
same,Neuroprotection on CGNs (cell viability after serum/potassium deprivation),[5],almost equipotent to inactive compounds
Br.Cn1cc(-c2csc(NCc3ccccc3)n2)c2cccnc21 [Compound 35],inhibition at 50 µM,human recombinant GSK-3β; [7],9.8%
same,Fyn % Inhibition @ 50 μM,FYNα; [7],n.i.
Br.C=CCn1cc(-c2csc(NCc3ccccc3)n2)c2cccnc21 [Compound 36],inhibition at 50 µM,human recombinant GSK-3β; [7],4%
same,Fyn % Inhibition @ 50 μM,FYNα; [7],n.i.
"c1ccc(CNc2nnc(-c3c[nH]c4ncccc34)s2)cc1 [Compound 40, N-Benzyl-5-(1H-pyrrolo[2,3-b]pyridin-3-yl)-1,3,4-thiadiazol-2-amine]",Neurotoxicity on CGNs (cell viability compared to control),[2],not neurotoxic
same,Neuroprotection on CGNs (cell viability after serum/potassium deprivation),[5],almost equipotent to inactive compounds
same,"Neurosphere number (object count per image), neurogenesis",[4],pronounced neurogenesis
same,Differentiation toward astrocytes (GFAP),[6],negatively affected astrocytic differentiation
same,Differentiation toward neurons (DCX),[6],mild increment
same,Differentiation toward oligodendrocytes (OLIG2),[6],inactive regarding oligodendrocytes
same,TREM2 expression (M2 marker) vs LPS,[3],no significant variations
"Br.Cc1sc(NCc2ccncc2)nc1-c1c[nH]c2ncccc12 [Compound 42, 5-Methyl-N-(pyridin-4-ylmethyl)-4-(1H-pyrrolo[2,3-b]pyridin-3-yl)thiazol-2-amine Hydrobromide]",IC50,FYNα,200 ± 20 nM
same,"Neurosphere dimension (brightfield object total area), maturation",[4],premature increase in dimension
Nc1nc(-c2c[nH]c3ncccc23)cs1 [Compound I],IC50,human recombinant GSK-3β,6840 ± 170 nM
same,inhibition at 50 µM,"FYNα; 50 μM, mean ± SD, n.i. = no inhibition, read-out: Fyn % Inhibition @ 50 μM",47.2%
